The source of these data is patent publication EP4759810A1, “PROTAC TARGETING BCL-XL PROTEIN AND USE THEREOF” (BEIJING SUNCELL BIO-MEDICAL CO., LTD., priority 2023, dated 2025).

Broadly, the half-life is the time needed for the level to fall by half in the phase considered. Lower therefore signals fast loss.

SMILES strings stand for the structures. Read-outs that look alike come from different tables or passages of the source.

Data set [1] deals with Molt-4 cells. As to the kind of experiment: Detection of E3 enzyme-dependence: Molt-4 cell killing with or without pomalidomide (CCK-8). In kind it is cell-based. The following applies: 10 µM pomalidomide, Figure 2. On the procedure:
(§1) Actively growing and healthy Molt-4 cells were collected, centrifuged at 1000 rpm for 5 minutes, and after removing the supernatant, the cells were resuspended in fresh RPMI-1640 medium containing 10% fetal bovine serum. Cell counting was then performed. The cell density was adjusted to 120,000 cells per milliliter, and 100 µL of the cell suspension was added to each well of a 96-well transparent cell culture plate. It was noted that the edge wells of the 96-well plate were not used for testing, and 300 µL of PBS alone was added to these wells to reduce medium evaporation.
Molt-4 cells were plated in duplicate according to the number of the tested small molecules, so as to test the effects with and without the addition of pomalidomide (a competitive ligand specific for E3 ligase), in which one half of the parallel cells was added 10 µM pomalidomide. A series of small molecule concentration gradients (0.001, 0.003, 0.01, 0.03, 0.1, 0.3, 1, and 3 µM) were pre-set, and a series of 2× drug dilutions for the above concentrated were prepared in DMEM medium containing 10% fetal bovine serum. 100 µL of the above DMEM medium containing the gradient concentrations of the drug was added to 96-well plates that have been pre-plated with cells, so that the final drug concentration in each well was the pre-set series of concentrations respectively. Three replicate wells were used for each test drug concentration. The 96-well plates were placed back in a 37°C incubator, and the cell viability was detected after three days.
(§2) Cell viability after drug treatment was detected by using the CCK-8 method: three days after adding the drugs, the plates were taken out, and the supernatant was discarded. Then, 100 µL of pre-prepared CCK-8 working solution was added to each well. The CCK-8 working solution was obtained through diluting a CCK-8 stock solution (C0041, Beyotime) by 10-fold volumn with a serum-free DMEM culture medium. The 96-well plates with the added CCK-8 working solution were placed back in the 37°C incubator and incubated for 0.5-2 hours. The plates were then taken out, and the absorbance value (OD value) of each well was measured at a wavelength of 450 nm. The cell viability in each experimental group was calculated according to the following formula: Relative cell viability (%) = (Blank control group - Experimental group) / Blank control group × 100%.

The subject of data set [2] is Molt-4 cells. Description: Molt-4 cell killing activity test (CCK-8). Type of data set: cell-based. The following applies: for EC50: Homo sapiens. On the procedure:
as §1, with “Molt-4 cells were cultured and amplified in 10 cm dishes by using RPMI-1640 medium supplemented with 10% fetal bovine serum. Actively” for “Actively”, “testing;” for “testing,”
The small molecule compounds to be tested for activity were prepared. A series of small molecule concentration gradients (0.001, 0.003, 0.01, 0.03, 0.1, 0.3, 1, and 3 µM) were pre-set, and a series of 2× drug dilutions for the above concentrations were prepared in RPMI-1640 medium containing 10% fetal bovine serum. 100 µL of the above medium containing the gradient concentrations of the drug was added to each well of a 96-well plate pre-seeded with cells, so that the final drug concentration in each well was the pre-set concentration gradient. Three replicate wells were used for each tested drug concentration. The 96-well plate was placed back in a 37°C incubator, and the cell viability was measured after three days.
as §2, with “The plate” for “Cell viability after drug treatment”, “taken out” for “detected by using the CCK-8 method:”, “drugs,” for “drugs, the plates were taken out,”, “and” for “and the supernatant was discarded. Then,”, “RPMI-1640” for “DMEM culture”, “nm, and the” for “nm. The”

The test system of the next data set is HEF cells. Description: Senescent cell killing activity test, HEF cell model (CCK-8). Type of data set: cell-based, human. Conditions: higher concentration (25 µM). The method, then:
To avoid replication of the induced senescent cells, low-passage proliferating HEF cells (<10 passages), MRC5 cells (<6 passages), and BJ cells (<10 passages) were used as normal controls. For chemical drug induced senescence, HEF cells were treated with 10 µM etoposide (Selleck, S1225) for 36-48 hours, MRC5 cells were treated with 5 µM bleomycin (Selleck, S1225) for 72 hours, and BJ cells were treated with 10 µg/mL bleomycin for 72 hours. Three days after the treatment, the cells were subcultured in fresh culture medium at a 1:3 ratio for 72 hours before further analysis and use.
Non-senescent and induced-senescent HEF cells, non-senescent and induced-senescent MRC5 cells, and non-senescent and induced-senescent BJ cells were respectively digested with trypsin, and centrifuged at 1000 rpm for 5 minutes. Then, the supernatant was removed, and the cells were resuspended in fresh DMEM culture medium containing 10% fetal bovine serum for counting. The cell density was adjusted so that the non-senescent cell density was 4000 cells/100 µL and the senescent cell density was 7000 cells/100 µL. 100 µL of the cell suspension was added to each well of a 96-well transparent cell culture plate. It was noted that the edge wells of the 96-well plate were not used as testing wells, and 300 µL of PBS alone was added to these wells to reduce evaporation of the culture medium. The 96-well plates with the well-plated cells were placed back in a 37°C incubator for overnight culture until the cells adhered. On the next day, the small molecule compounds to be tested were prepared and added after the cells had adhered.
A series of small molecule concentration gradients (0.01, 0.03, 0.1, 0.3, 1, 3, 10, and 25 µM) were pre-set, and a series of 2× drug dilutions for the above concentrations were prepared in DMEM culture medium containing 10% fetal bovine serum. 100 µL of the above DMEM culture medium containing the gradient concentrations of the drug was added to each well of the 96-well plate that had been well-plated with cells, so that the final drug concentration in each well was the pre-set series of concentrations. Three replicate wells were used for each test drug concentration. The 96-well plates were placed back in a 37°C incubator, and cell viability was measured after three days.
Three days after adding the drug, the plates were taken out, and the supernatant was discarded. 100 µL of pre-prepared CCK-8 working solution was added to each well. The CCK-8 working solution was obtained through diluting a CCK-8 stock solution (C0041, Beyotime) with a serum-free DMEM culture medium by 10-fold volumn. The 96-well plates containing the CCK-8 working solution were placed back in the 37°C incubator and incubated for 0.5-2 hours. The plates were then taken out, and the absorbance value (OD value) of each well was measured at a wavelength of 450 nm. The cell viability in each experimental group was calculated according to the following formula: Relative cell viability (%) = (Blank control group - Experimental group) / Blank control group × 100%.

Data set [3] in a line: Metabolic stability assay in liver microsomes (mouse). In kind it is in vitro ADME. The method, then: (§3) The metabolic reaction of compounds in liver microsome was performed in a system with a total volume of 400 µL, and the following steps below were sequentially performed for the reaction and detection: 1) 200 µL of phosphate buffer (200 mM), 106 µL of sterile ultrapure water, and 40 µL of magnesium chloride solution (50 mM) were added to each detection tube to prepare a reaction working solution. 2) Two reaction systems with or without adding NADPH were prepared for each compound to be tested. For the reaction system with adding NADPH: 10 µL of liver microsomes (20 mg/mL) and 40 µL of NADPH (10 mM) were added to the above working solution; for the reaction system without adding NADPH: 10 µL of liver microsomes (20 mg/mL) and 40 µL of sterile ultrapure water were added to the above working solution. The final concentration of liver microsomes in both reaction systems was 0.5 mg/mL. 3) 4 µL of the compound to be tested ([…]) was added to each reaction tube, resulting in a final concentration of 1 µM for the compound in the reaction system. The detection tubes were placed at 37°C for reaction. 4) 50 µL samples were taken from each detection tube at 0, 15, 30, 45, and 60 minutes after adding the compound. The reaction was terminated by adding cold acetonitrile containing IS (100 nM alprazolam, 200 nM labetalol, 200 nM caffeine, and 2 µM ketoprofen) in a 4× volume. The samples were centrifuged at 3220 g for 40 minutes, 100 µL of the supernatant was mixed with 100 µL of ultrapure water, and a sample was taken for LC-MS/MS analysis.
(§4) Calculation of in vitro liver microsomal metabolic half-life and in vitro metabolic intrinsic clearance rate: The LC-MS detection results were analyzed to obtain the percentage of the remaining amount of the tested compound relative to the initial amount at each time point. The natural logarithm of the remaining percentage was linearly fitted against the incubation time.
A general note: Microsomes from liver hold many membrane-bound enzymes, among them those of drug oxidation.

The nature of data set [4]: Metabolic stability assay in liver microsomes (human). Type of data set: in vitro ADME. The method, then:
as §3, §4

[5] abbreviates: 72 h, Molt-4 cells, three days, CCK-8, read-out: EC50 (Molt-4).
Where [6] appears, read: mouse liver microsomes 0.5 mg/mL, 1 µM compound, 37°C.
Where [7] appears, read: human liver microsomes 0.5 mg/mL, 1 µM compound, 37°C.

For `CC1(C)CCC(c2ccc(Cl)cc2)=C(CN2CCN(c3ccc(C(=O)NS(=O)(=O)c4ccc(N[C@H](CCN5CCOCC5)CSc5ccccc5)c(S(=O)(=O)C(F)(F)F)c4)cc3)CC2)C1` [ABT-263, reference compound], in the data set with Molt-4 cells [1], the “cell killing activity after addition of pomalidomide (+poma) compared to without (-poma)” value is “only slightly affected”. Further, the EC50 in the data set on Molt-4 cells [2] (setting [5]) lay within 100 to 1000 nM. The “toxicity on normal non-senescent HEF cells” value with HEF cells was “toxic killing effects on normal non-senescent HEF cells”.
On to `[2H]C1([2H])c2c(C(=O)Nc3nc4ccccc4s3)cccc2C([2H])([2H])C([2H])([2H])N1c1ccc(-c2cnn(CC34CC5CC(CC(C5)C3)C4)c2C)c(C(=O)O)n1` [Compound A13D-2], for which the values for the Clint in data set [3] (setting [6]) and in data set [4] (setting [7]) were 18.15 µL/min/mg protein and 55.31 µL/min/mg protein, respectively. Besides, the T1/2 in data set [3] (setting [6]) stood at 1.273 h; in data set [4] (setting [7]), 0.4177 h.
Take `Cc1ncsc1-c1ccc([C@H](C)NC(=O)[C@@H]2C[C@@H](O)CN2C(=O)[C@@H](NC(=O)CCCCCC(=O)N2CCN(CC[C@H](CSc3ccccc3)Nc3ccc(S(=O)(=O)NC(=O)c4ccc(N5CCN(CC6=C(c7ccc(Cl)cc7)CCC(C)(C)C6)CC5)cc4)cc3S(=O)(=O)C(F)(F)F)CC2)C(C)(C)C)cc1` [DT-2216, reference compound]: the “cell killing activity after addition of pomalidomide (+poma) compared to without (-poma)” value with Molt-4 cells [1] is “almost unaffected”.
Regarding `[2H]C1([2H])Cc2cccc(C(=O)Nc3nc4ccccc4s3)c2CN1c1ccc(-c2cnn(CC34CC5CC(CC(C5)C3)C4)c2C)c(C(=O)O)n1` [Compound A13D-6], in data set [3] (setting [6]), the Clint is 14.07 µL/min/mg protein and the T1/2 was 1.642 h. For the same compound, the “metabolic stability in liver microsomes, in words” value in data set [4] (human and mouse liver microsomes, compared with A-1331852 and molecules deuterated at other sites) was “better metabolic stability in liver microsomes”. In data set [4] (setting [7]), the Clint was 50.18 µL/min/mg protein and the T1/2 turned out to be 0.4603 h.
In the case of `Cc1c(-c2ccc(N3CCc4cccc(C(=O)Nc5nc6ccccc6s5)c4C3)nc2C(=O)O)cnn1CC12CC3CC(CC(C3)C1)C2` [Compound A1331852, reference compound], the “cell killing activity after addition of pomalidomide (+poma) compared to without (-poma)” value in the data set on Molt-4 cells [1] is “only slightly affected”.
As for `[2H]C1([2H])CN(c2ccc(-c3cnn(CC45CC6CC(CC(C6)C4)C5)c3C)c(C(=O)O)n2)Cc2c(C(=O)Nc3nc4ccccc4s3)cccc21` [Compound A13D-5], the Clint in data set [3] (setting [6]) was determined as 17.61 µL/min/mg protein; in data set [4] (setting [7]), 53.56 µL/min/mg protein. The T1/2 in data set [3] (setting [6]) was 1.312 h; in data set [4] (setting [7]), 0.4313 h.
As to `O=C(Nc1nc2ccccc2s1)c1cccc2c1CN(c1ccc(CCCOc3ccc(C#CCN4CCNCC4)cc3F)c(C(=O)O)n1)CC2` [Compound C1], in the data set on Molt-4 cells [1], the “cell killing activity after addition of pomalidomide (+poma) compared to without (-poma)” value was “only slightly affected”. Moreover, the “killing Molt-4 cells at different concentrations (Figure 1), in words” value with Molt-4 cells [2] (Figure 1, 0.001-3 µM, comparison with control molecules) was “higher percentage for killing Molt-4 cells than those of ABT-263 and DT-2216, but lower than those of A-1331852 and A-1155463”. For the same compound, the EC50 in the data set with Molt-4 cells [2] (setting [5]) is 10 to 100 nM; in the data set with Molt-4 cells [2] (Bcl-xL-positive Molt-4 cells, read-out: cellular activity / killing activity (Molt-4 cells)) it was 10 to 100 nM. Moreover, the “activity for killing Molt-4 cells, in words” value with Molt-4 cells [2] (comparison with C1, the targeting ligand or control molecules) is “higher than that of the commercially available control molecule ABT-263, but lower than those of A-1331852 and A-1155463”. For the same compound, the results for the Clint in data set [3] (setting [6]) and in data set [4] (setting [7]) were 4.90 µL/min/mg protein and 7.36 µL/min/mg protein, respectively. The half-life at 1 µM in data set [3] (setting [6]) was determined as 4.71 h; in data set [4] (setting [7]) it was 3.14 h. The microsomal CLint at 1 µM in data set [3] (mouse liver microsomes, read-out: clearance rate (metabolic clearance rate)) turned out to be 4.9 µL/min/mg; in data set [4] (human liver microsomes, read-out: clearance rate (metabolic clearance rate)) it was 7.36 µL/min/mg.
In data set [3] (setting [6]), `[2H]c1c([2H])c([2H])c2sc(NC(=O)c3cccc4c3CN(c3ccc(-c5cnn(CC67CC8CC(CC(C8)C6)C7)c5C)c(C(=O)O)n3)CC4)nc2c1[2H]` [Compound A13D-1] registered a Clint of 266.89 µL/min/mg protein and a T1/2 of 0.0865 h. In data set [4] (setting [7]), the Clint came out at 235.82 µL/min/mg protein and the T1/2 was 0.098 h.
